Source: article PMC6344527, “Toxicity and possible mechanisms of action of honokiol from Magnolia denudata seeds against four mosquito species” (Scientific Reports, 2019)
Converted amounts (≈) assume the structure as drawn. Read-outs that look alike come from different tables or passages of the source.

Experiments:
[1] = system: third-instar larvae of insecticide-resistant Anopheles sinensis; test: contact mortality bioassay, 24 h exposure; type: in vivo
Description: (§1) A contact mortality bioassay[25] was used to evaluate the toxicity of all compounds against third-instar larvae of the four mosquito species. Each test compound in methanol was suspended in DW with Triton X-100 (20 µL/L). Groups of 20 mosquito larvae were separately placed into paper cups (270 mL) containing each compound solution (250 mL). […] Negative controls consisted of a methanol–Triton X-100 solution in DW.
(§2) Treated and control (methanol–Triton X-100 solution only) larvae were maintained under the same conditions as those used for colony maintenance without providing food. Larval mortalities were determined 24 h post-treatment. […] All treatments were performed three times using 20 larvae per replicate.
(§3) The concentration of the test compounds required to produce 50% AChE inhibitory activity (IC50) was determined using the SAS 9.13 program (Cary: SAS Institute; 2014). Concentration-mortality data were subjected to probit analysis using the SAS 9.13 program. […] Statistical analyses were performed using the SAS 9.13 program. Multiple linear regression and correlation analysis were performed using the SPSS 24 program (Armonk: IBM Corp.; 2016).

[2] = system: third-instar larvae of insecticide-susceptible Aedes aegypti; test: contact mortality bioassay, 24 h exposure; type: in vivo; conditions: 24 h exposure; for LC50: Aedes aegypti, 24 h
Description: as §1, §2, §3

[3] = system: third-instar larvae of insecticide-susceptible Aedes albopictus; test: contact mortality bioassay, 24 h exposure; type: in vivo
Description: as §1, §2, §3

[4] = system: third-instar larvae of insecticide-susceptible Culex pipiens pallens; test: contact mortality bioassay, 24 h exposure; type: in vivo; conditions: 24 h exposure; for LC50: Culex pipiens, 24 h
Description: as §1, §2, §3

[5] = system: Larvae of An. sinensis; parameters: method as in PMID 26085316; conditions: An. sinensis larvae compared with Ae. aegypti larvae; cited from earlier work
[6] = system: AaAQP4; parameters: method as in PMID 24260359; conditions: larval Ae. aegypti anal gills; cited from earlier work
[7] = system: AaV-type H^+-ATPase; parameters: method as in PMID 24260359; conditions: larval Ae. aegypti; cited from earlier work
[8] = system: larval Ae. aegypti; parameters: method as in PMID 23676010; conditions: cited from earlier work
[9] = biological target: acetylcholinesterase (AChE) from third-instar Ae. aegypti larvae (Aedes aegypti, UniProt A4GND7); test: acetylcholinesterase inhibition assay; type: biochemical; conditions: based on IC50 values
acetylcholinesterase (AChE) from third-instar Ae. aegypti larvae, sequence (A4GND7 37-679): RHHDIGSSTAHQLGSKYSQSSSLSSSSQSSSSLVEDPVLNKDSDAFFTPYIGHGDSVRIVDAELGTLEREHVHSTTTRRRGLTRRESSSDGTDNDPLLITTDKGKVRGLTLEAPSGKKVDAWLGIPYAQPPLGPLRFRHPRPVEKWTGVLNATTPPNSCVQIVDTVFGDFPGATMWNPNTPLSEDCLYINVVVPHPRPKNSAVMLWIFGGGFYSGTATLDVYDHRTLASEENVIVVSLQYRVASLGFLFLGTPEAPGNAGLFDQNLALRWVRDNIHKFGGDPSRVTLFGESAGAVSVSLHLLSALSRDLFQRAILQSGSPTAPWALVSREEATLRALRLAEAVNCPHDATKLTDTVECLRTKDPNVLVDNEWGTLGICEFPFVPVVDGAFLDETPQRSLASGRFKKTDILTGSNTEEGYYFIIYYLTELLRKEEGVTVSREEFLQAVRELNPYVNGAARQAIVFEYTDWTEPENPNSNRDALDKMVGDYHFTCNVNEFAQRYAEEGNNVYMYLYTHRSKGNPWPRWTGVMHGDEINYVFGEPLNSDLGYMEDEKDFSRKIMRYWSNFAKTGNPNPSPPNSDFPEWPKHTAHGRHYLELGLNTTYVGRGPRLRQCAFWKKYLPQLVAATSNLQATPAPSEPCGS
Description: The in vitro AChE inhibitory activity of the test compounds was assessed according to the method of Perumalsamy et al.[42]. Third-instar Ae. aegypti larvae were used in all experiments. Whole bodies of 50 larvae were homogenized in 1 mL of ice-cold 0.1 M phosphate buffer (pH 8.0) using a glass tissue homogenizer. After filtering through cheesecloth, the homogenate was centrifuged at 1,000 × g at 4 °C for 5 min. The supernatant was used directly as the enzyme source for AChE. The protein levels were determined using the Bradford Protein Assay Kit (Bio-Rad Laboratories, Hercules, CA, USA) using BSA as the standard. The reaction mixture consisted of 50 µL of the crude enzyme preparation (4.3–4.8 µg protein equivalents), 150 µL of 0.1 M phosphate buffer, 20 µL of 3 mM DTNB in phosphate buffer (pH 7.0), and 1 µL of various concentrations of each test compound in ethanol. The reaction mixture was incubated at 30 °C for 5 min, and 20 µL of 32 mM ATChI was then added to the mixture. After incubation for 30 min, the reaction was terminated by adding 20 µL of 5 mM eserine salicylate. Absorbance was recorded at 412 nm using a VersaMax microplate reader (Molecular Devices, Sunnyvale, CA, USA). […] The results are expressed as the means ± standard errors (SEs) of triplicate samples from three independent experiments.
as §3

COP(=S)(OC)Oc1ccc(Sc2ccc(OP(=S)(OC)OC)cc2)cc1 [Temephos, temephos, reference compound]
LC50 ([1]; Anopheles sinensis, 24 h, read-out: LC50 (mg/L) (95% CI)): 0.4 mg/L (≈ 0.857 µM) | LC90 (mg/L) (95% CI) ([1]; Table 5, larvae resistant to deltamethrin and temephos, 24 h exposure): 1.39 (1.05–2.13) mg/L | Slope ± SE ([1]; probit slope, Table 5, larvae resistant to deltamethrin and temephos, 24 h exposure): 2.2 ± 0.15 | LC50 ([2]; read-out: LC50 (mg/L) (95% CI), Table 3): 0.0125 mg/L (≈ 0.0268 µM) | LC90 (mg/L) (95% CI) ([2]; Table 3): 0.0658 (0.0479–0.1059) mg/L | LC50 ([3]; Aedes albopictus, 24 h, read-out: LC50 (mg/L) (95% CI)): 0.0132 mg/L (≈ 0.0283 µM) | LC90 (mg/L) (95% CI) ([3]; Table 4, 24 h exposure): 0.0778 (0.0547–0.1343) mg/L | Slope ± SE ([3]; probit slope, Table 4, 24 h exposure): 1.6 ± 0.21 | LC50 ([4]; read-out: LC50 (mg/L) (95% CI), Table 2, KS-CP strain): 0.0162 mg/L (≈ 0.0347 µM) | LC90 (mg/L) (95% CI) ([4]; Table 2, KS-CP strain): 0.0749 (0.0551–0.1177) mg/L | relative susceptibility ratio (RSR) [5]: 29

CCCCC/C=C/C=C/C(=O)NCC(C)C [pellitorine]
AaAQP4 expression levels [6]: inhibited the AaAQP4 expression levels | expression levels of the gene encoding AaV-type H^+-ATPase [7]: slight decreases

Cc1ccc(C(C)C)cc1O [carvacrol]
LC50 [8]: 69 µg/mL (≈ 459 µM)

COP(=S)(OC)Oc1ccc(SC)c(C)c1 [fenthion]
relative susceptibility ratio (RSR) [5]: 11

CC1(C)[C@H](C(=O)O[C@H](C#N)c2cccc(Oc3ccccc3)c2)[C@@H]1C=C(Br)Br [deltamethrin]
relative susceptibility ratio (RSR) [5]: 611

Oc1ccccc1 [Phenol]
LC50 ([2]; Table 7, structure-activity series, read-out: LC50 (mg/L) (95% CI)): 43.2 mg/L (≈ 459 µM) | LC90 (mg/L) (95% CI) ([2]; Table 7, structure-activity series): 207.1 (145.1–363.6) mg/L | LC50 ([4]; Table 6, structure-activity series, read-out: LC50 (mg/L) (95% CI)): 41.7 mg/L (≈ 443 µM) | LC90 (mg/L) (95% CI) ([4]; Table 6, structure-activity series): 185.1 (133.5–306.6) mg/L | AChE inhibitory activity (in words) [9]: lowest of all of the compounds that were examined | LC50 [8]: 194 µg/mL (≈ 2060 µM)
